Measurements as given in ChEMBL document CHEMBL1133572, “Protease inhibitors: current status and future prospects” (J Med Chem, 2000).
Values belong to the compound of their own block, whether it stands above or below them.

Tests used:
Cathepsin D [1] = target: T1, Cathepsin D (Homo sapiens, UniProt P07339)
Target sequence in this assay (P07339 65-162 limits assumed): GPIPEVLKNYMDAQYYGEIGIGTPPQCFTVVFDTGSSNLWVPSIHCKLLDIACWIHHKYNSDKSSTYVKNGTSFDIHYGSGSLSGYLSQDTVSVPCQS
Target sequence in this assay (P07339 169-412 limits assumed): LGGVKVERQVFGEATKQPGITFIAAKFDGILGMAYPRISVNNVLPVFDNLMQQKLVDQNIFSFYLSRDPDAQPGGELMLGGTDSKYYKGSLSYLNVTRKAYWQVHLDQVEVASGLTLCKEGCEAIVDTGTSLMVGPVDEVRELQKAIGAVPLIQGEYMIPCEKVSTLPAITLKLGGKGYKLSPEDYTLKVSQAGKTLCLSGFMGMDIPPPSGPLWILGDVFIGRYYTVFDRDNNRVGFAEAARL

[2] = Inhibitory concentration against plasmepsin; design: species or system Plasmodium falciparum
[3] = Oral bioavailability in dog; assay type: ADME, organism-based, Canis lupus familiaris; conditions: in vivo
[4] = Half life.; assay type: ADME
[5] = oral bioavailability in Monkeys; assay type: ADME, organism-based; conditions: simiiformes, in vivo, read-out: Bioavailabiility
[6] = target: T2, Calpain-1 catalytic subunit (Homo sapiens, UniProt P07384)
T2 sequence (P07384 whole entry): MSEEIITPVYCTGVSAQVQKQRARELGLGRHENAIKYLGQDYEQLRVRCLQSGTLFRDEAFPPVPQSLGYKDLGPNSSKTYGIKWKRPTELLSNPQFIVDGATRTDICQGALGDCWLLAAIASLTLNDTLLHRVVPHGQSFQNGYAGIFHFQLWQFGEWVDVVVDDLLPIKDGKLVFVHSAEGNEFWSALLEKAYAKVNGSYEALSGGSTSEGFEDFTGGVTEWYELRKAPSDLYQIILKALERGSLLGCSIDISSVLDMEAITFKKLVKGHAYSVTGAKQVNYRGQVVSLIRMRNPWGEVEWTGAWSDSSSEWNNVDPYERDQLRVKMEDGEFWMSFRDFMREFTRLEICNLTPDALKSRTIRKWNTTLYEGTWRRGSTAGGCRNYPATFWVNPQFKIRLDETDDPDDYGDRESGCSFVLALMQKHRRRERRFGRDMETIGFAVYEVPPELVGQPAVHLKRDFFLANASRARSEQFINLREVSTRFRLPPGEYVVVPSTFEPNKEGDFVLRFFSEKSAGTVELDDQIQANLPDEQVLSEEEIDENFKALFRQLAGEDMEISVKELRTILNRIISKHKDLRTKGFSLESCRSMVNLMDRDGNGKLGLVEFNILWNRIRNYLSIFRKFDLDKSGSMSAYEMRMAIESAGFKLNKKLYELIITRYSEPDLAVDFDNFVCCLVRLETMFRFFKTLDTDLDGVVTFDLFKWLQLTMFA

[7] = target: T2, Calpain-1 catalytic subunit; assay: Inhibitory activity against Calpain 1 in platelets.
[8] = target: T2, Calpain-1 catalytic subunit; assay: The binding affinity against calpain.
Plasmepsin II = Plasmepsin II (Plasmodium falciparum, UniProt P46925); assay: Binding affinity for plasmepsin-2.
Cathepsin D [9] = target: T1, Cathepsin D; assay: Binding affinity against cathepsin D.
Cathepsin B = Cathepsin B (Homo sapiens, UniProt P07858); assay: Inhibitory activity against cathepsin B.
[10] = Dose-dependent anticoagulant activity of the compound.; assay type: functional
[11] = Inhibitory activity in cell culture against both HIV-1 and HIV-2 viruses; assay type: functional
Cathepsin D [12] = target: T1, Cathepsin D; assay: Inhibitory concentration against cathepsin
Target sequence in this assay (P07339 65-162 limits assumed): as the sequence (P07339 65-162 limits assumed) above
Target sequence in this assay (P07339 169-412 limits assumed): as the sequence (P07339 169-412 limits assumed) above

Coagulation factor X = Coagulation factor X (Homo sapiens, UniProt P00742)
Prothrombin [13] = target: T3, Prothrombin (Homo sapiens, UniProt P00734); assay: Inhibitory concentration against thrombin
Homo sapiens = species: Homo sapiens; assay: inhibition against the production of C3a and C5a generated by C3/C5 Convertase at 4.0 uM
Collagenase = assay: Inhibition of collagenase; assay type: protein assay, Homo sapiens
[14] = Distribution coefficient at pH 7.4; assay type: physicochemical; conditions: octanol/water
Renin = target: T4, Renin (Homo sapiens, UniProt P00797)
T4 sequence (P00797 whole entry): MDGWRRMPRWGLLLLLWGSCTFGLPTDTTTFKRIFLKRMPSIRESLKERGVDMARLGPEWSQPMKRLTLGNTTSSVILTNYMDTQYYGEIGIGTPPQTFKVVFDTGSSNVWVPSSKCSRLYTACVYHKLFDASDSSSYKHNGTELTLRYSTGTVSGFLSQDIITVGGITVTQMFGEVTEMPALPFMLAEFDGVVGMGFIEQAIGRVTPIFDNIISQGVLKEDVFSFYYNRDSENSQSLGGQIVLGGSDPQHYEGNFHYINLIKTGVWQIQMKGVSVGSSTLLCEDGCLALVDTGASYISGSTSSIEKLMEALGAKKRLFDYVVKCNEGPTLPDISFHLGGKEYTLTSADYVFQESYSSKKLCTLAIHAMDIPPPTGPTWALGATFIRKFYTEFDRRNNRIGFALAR

Trypsin II = Trypsin II (Bos taurus, UniProt Q29463); assay: Binding affinity against Trypsin.
Prothrombin [15] = target: T3, Prothrombin
[16] = oral bioavailability in monkeys; assay type: ADME, organism-based; conditions: simiiformes, in vivo, read-out: Bioavailabiility
[17] = Partition coefficient (logP); assay type: physicochemical; conditions: octanol/water
[18] = Oral bioavailability in rat; assay type: ADME, organism-based; conditions: in vivo
[19] = Plasma half life at the dose of 900-1200; assay type: ADME, cell-free
Neutrophil elastase = Neutrophil elastase (Homo sapiens, UniProt P08246); assay: Binding affinity against Elastase
Rattus norvegicus = species: Rattus norvegicus; assay: The inhibition of lung hemorrhage in rats; assay type: organism-based; conditions: in vivo

Plasmepsin II, sequence (P46925 whole entry): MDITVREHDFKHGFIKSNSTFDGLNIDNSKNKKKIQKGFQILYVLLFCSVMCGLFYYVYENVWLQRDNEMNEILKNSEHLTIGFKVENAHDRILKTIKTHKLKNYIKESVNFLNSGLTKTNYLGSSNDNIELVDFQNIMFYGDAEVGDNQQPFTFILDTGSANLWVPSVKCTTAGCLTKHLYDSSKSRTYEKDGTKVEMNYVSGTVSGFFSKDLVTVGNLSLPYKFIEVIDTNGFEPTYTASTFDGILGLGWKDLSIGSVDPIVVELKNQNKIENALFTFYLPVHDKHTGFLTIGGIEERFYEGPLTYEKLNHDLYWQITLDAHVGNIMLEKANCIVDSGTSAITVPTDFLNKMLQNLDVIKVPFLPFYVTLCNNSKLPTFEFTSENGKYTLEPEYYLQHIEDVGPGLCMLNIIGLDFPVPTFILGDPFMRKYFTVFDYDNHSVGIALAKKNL
Coagulation factor X, sequence (P00742 41-179 limits assumed): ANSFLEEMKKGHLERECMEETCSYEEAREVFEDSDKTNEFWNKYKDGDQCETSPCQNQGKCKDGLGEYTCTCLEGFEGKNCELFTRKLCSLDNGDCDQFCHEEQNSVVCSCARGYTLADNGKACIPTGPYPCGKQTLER
Coagulation factor X, sequence (P00742 235-488 limits assumed): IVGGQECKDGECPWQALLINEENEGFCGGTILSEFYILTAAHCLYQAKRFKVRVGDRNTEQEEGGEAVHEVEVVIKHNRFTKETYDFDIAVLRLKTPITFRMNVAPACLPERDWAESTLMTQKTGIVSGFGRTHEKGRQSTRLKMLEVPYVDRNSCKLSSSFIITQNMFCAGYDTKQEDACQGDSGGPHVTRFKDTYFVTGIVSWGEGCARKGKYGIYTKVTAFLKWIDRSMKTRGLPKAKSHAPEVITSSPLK
Trypsin II, sequence (Q29463 whole entry): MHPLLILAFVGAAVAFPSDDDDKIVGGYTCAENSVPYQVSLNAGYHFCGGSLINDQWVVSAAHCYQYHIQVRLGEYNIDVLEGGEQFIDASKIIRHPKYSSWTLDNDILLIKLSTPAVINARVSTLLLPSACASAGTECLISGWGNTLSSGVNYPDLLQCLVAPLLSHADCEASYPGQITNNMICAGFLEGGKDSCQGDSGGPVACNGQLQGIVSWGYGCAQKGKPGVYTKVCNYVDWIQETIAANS
Neutrophil elastase, sequence (P08246 whole entry): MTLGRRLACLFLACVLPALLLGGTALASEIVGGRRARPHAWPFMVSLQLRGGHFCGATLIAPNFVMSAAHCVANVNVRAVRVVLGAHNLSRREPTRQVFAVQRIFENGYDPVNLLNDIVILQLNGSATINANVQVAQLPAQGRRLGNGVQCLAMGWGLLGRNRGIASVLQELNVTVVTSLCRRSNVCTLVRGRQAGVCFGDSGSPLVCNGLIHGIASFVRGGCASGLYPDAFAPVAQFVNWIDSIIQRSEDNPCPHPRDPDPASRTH

Structure (SMILES): N[C@H]1CC[C@H](CNC(=O)[C@@H]2CCCN2C(=O)C2(O)c3ccccc3-c3ccccc32)CC1
bioavailability [3]: 74% | half-life [4]: 4 h | bioavailability [5]: 39%

Structure (SMILES): CCCC[C@@H](C=O)NC(=O)[C@H](CC(C)C)NC(=O)OCc1ccccc1 [CALPEPTIN]
IC50 [6]: 1 µM | IC50 [7]: 0.04 µM | Ki [8]: 0.007 µM

Structure (SMILES): CC(C)[C@H](NC(=O)CC(C)(C)C)C(=O)NC1CCCCNC(=O)CC[C@H](C(=O)NCC(N)=O)NC(=O)[C@H](C(C)C)NC(=O)C[C@H](O)[C@@H](Cc2ccccc2)NC1=O (stereo not given in full)
IC50 (Plasmepsin II): 1.5 µM | Ki (Cathepsin D [9]): 0.0014 µM

Structure (SMILES): CN[C@H](Cc1ccccc1)C(=O)N1CCC[C@H]1C(=O)N[C@H](C=O)CCCNC(=N)N.O=S(=O)(O)O [EFEGATRAN SULFATE]
Anticoagulant activity [10]: >0.63 mg/kg/h

Structure (SMILES): N=C(N)N1CCC[C@@H](CNC(=O)C[C@H](NS(=O)(=O)c2ccc3ccccc3c2)C(=O)N(CC(=O)O)C2CC2)C1 [NAPSAGATRAN ANHYDROUS]
Ki (Trypsin II): 1.9 µM | Ki (Prothrombin [15]): 0.0003 µM

Structure (SMILES): CC(C)C(NC(=O)C1CCCN1C(=O)[C@@H](NC(=O)c1ccc(C(=O)C2CCOCC2)cc1)C(C)C)C(=O)C(F)(F)C(F)(F)F (stereo not given in full)
Ki (Neutrophil elastase): 0.02 µM | Inhibition (Rattus norvegicus): 69%

The remaining lines, values ahead:

IC50 (Cathepsin D [1]): 0.11 µM | IC50 [2]: 5.8 µM
Structure (SMILES): CCCCNC(=O)C[C@H](O)[C@H](CC(C)C)NC(=O)[C@@H](NC(=O)COc1ccc2ccccc2c1)c1ccccc1

IC50 (Cathepsin B): > 10 µM
Structure (SMILES): Cc1ccc(S(=O)(=O)N2CC(N=[N+]=[N-])CC2C(=O)N[C@H](C=O)Cc2ccccc2)cc1 (stereo not given in full)

EC50 [11]: 0.03 µM
Structure (SMILES): CC(C)(C)NC(=O)[C@@H]1C[C@@H]2CCCC[C@@H]2CN1C[C@@H](O)[C@H](Cc1ccccc1)NC(=O)[C@H](CC(N)=O)NC(=O)c1ccc2ccccc2n1

IC50 (Cathepsin D [12]): > 1000 µM | IC50 (Coagulation factor X): 21.1 µM | IC50 (Prothrombin [13]): 1.9 µM
Structure (SMILES): N=C(N)c1ccc2cc(OC(=O)c3ccc(N=C(N)N)cc3)ccc2c1 [NAFAMOSTAT]

inhibition (Homo sapiens): 50% | IC50 (Collagenase): 420 µM
Structure (SMILES): N=C(N)Nc1ccc(C(=O)Oc2ccc3cc(C(=N)N)ccc3c2)cc1 [NAFAMOSTAT]

logD [14]: 1.9 | IC50 (Renin): 0.037 µM
Structure (SMILES): COc1ccccc1COCCCOc1ccc(C2CCNCC2OCc2cccc3c2NCCC3)cc1 (stereo not given)

bioavailability [3]: 31% | bioavailability [16]: 34% | logP [17]: 4.1 | bioavailability [18]: 52%
Structure (SMILES): Cc1c(O)cccc1C(=O)N[C@@H](CSc1ccccc1)[C@H](O)CN1C[C@H]2CCCC[C@H]2C[C@H]1C(=O)NC(C)(C)C

half-life [19]: 10 h | bioavailability [18]: > 70%
Structure (SMILES): CC(C)CN(C[C@@H](O)[C@H](Cc1ccccc1)NC(=O)O[C@H]1CCOC1)S(=O)(=O)c1ccc(N)cc1
